Test results published in patent US8815865B2, “Substituted 4-hydroxypyrimidine-5-carboxamides” (Merck Sharp & Dohme Corp., priority 2009, dated 2014).

Columns and labels:
[1] = Pharmacokinetics after intravenous dosing in dogs (plasma concentrations by LC-MS/MS); type: in vivo, dogs (beagles); details: dog (beagle), 0.5 mg/kg intravenously
Method: The pharmacokinetics of Example 1 (E-1) was evaluated, and compared to that of Example 163 and Example 190 both disclosed in International PCT Application, No. PCT/US09/036,501, filed Mar. 9, 2009. Compounds were formulated in a 1:1 solution (by volume) of PEG200: water and dosed at 0.5 mg/kg of body weight. The formulation was dosed intravenously in 2 dogs (beagles), and blood was drawn at the following time points (hours) 0.08, 0.25, 0.5, 1, 2, 4, 6, 8, 24. The plasma concentrations shown in the table below were determined by protein precipitation followed by liquid chromatography—tandem mass spectrometry analysis.

PHD2 = molecular target: T1, PHD2 (Homo sapiens, UniProt Q9GZT9); test: PHD2 / HIF-1α peptide time resolved fluorescence inhibition assay; type: biochemical
T1 construct: FLAG-tagged full length PHD2 expressed in and purified from baculovirus-infected Sf9 cells; FLAG; made in house; host or cells: baculovirus-infected Sf9 cells
Method: To each well of a 96-well plate was added 1 μL of test compound in DMSO and 20 μl of assay buffer (50 mM Tris pH 7.4/0.01% Tween-20/0.1 mg/ml bovine serum albumin/10 μM ferrous sulfate/1 mM sodium ascorbate/20 μg/ml catalase) containing 0.15 μg/ml FLAG-tagged full length PHD2 expressed in and purified from baculovirus-infected Sf9 cells. After a 30 min preincubation at room temperature, the enzymatic reactions were initiated by the addition of 4 μL of substrates (final concentrations of 0.2 μM 2-oxoglutarate and 0.5 μM HIF-1α peptide biotinyl-DLDLEMLAPYIPMDDDFQL). After 2 hr at room temperature, the reactions were terminated and signals were developed by the addition of a 25 μL quench/detection mix to a final concentration of 1 mM ortho-phenanthroline, 0.1 mM EDTA, 0.5 nM anti-(His)6 LANCE reagent (Perkin-Elmer Life Sciences), 100 nM AF647-labeled streptavidin (Invitrogen), and 2 μg/ml (His)6-VHL complex (S. Tan (2001) Protein Expr. Purif. 21, 224-234). The ratio of time resolved fluorescence signals at 665 and 620 nm was determined, and percent inhibition was calculated relative to an uninhibited control sample run in parallel.

T1 sequence (Q9GZT9 whole entry): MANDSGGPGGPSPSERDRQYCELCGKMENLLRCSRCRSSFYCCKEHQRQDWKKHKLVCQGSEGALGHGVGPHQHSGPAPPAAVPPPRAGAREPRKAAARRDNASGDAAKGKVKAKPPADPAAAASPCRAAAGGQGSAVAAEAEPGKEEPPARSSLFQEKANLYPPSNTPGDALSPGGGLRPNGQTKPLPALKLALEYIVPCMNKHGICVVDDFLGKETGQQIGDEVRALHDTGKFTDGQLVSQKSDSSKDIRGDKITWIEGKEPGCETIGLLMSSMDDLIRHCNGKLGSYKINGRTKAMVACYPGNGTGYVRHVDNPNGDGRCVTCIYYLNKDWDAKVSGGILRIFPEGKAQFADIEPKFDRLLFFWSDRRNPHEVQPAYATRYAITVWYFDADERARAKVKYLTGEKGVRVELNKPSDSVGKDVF

MRT [1]: 7.93 h
clearance [1]: 1.35 mL/min/kg
concentration at 0.08 h ([1]; PEG200:water 1:1, time 0.08 hours): 2230 nM
half-life ([1]; read-out: T ½ (converted)): 6.07 h
concentration at 0.25 h ([1]; time 0.25 hours): 2060 nM
concentration at 0.5 h ([1]; time 0.50 hours): 1960 nM
concentration at 1 h ([1]; time 1.00 hours): 1660 nM
concentration at 2 h ([1]; time 2.00 hours): 1390 nM
concentration at 4 h ([1]; time 4.00 hours): 1320 nM
concentration at 6 h ([1]; time 6.00 hours): 917 nM
concentration at 8 h ([1]; time 8.00 hours): 504 nM
concentration at 24 h ([1]; time 24.00 hours): 100 nM
IC50, inhibition of the interaction between PHD2 and a HIF peptide (PHD2; range printed in mixed units (nanomolar to micromolar)): 0.1 to 10000 nM
IC50 (PHD2; read-out: PHD2 binding activity expressed as IC50): ≤ 10 nM
Compound: COc1ccc(C(NC(=O)c2cnc(-c3cccnn3)nc2O)C2CCOCC2)cn1 (single isomer, unassigned) [Example 1, (R)- or (S)-4-Hydroxy-N-[(6-methoxypyridin-3-yl)(tetrahydro-2H-pyran-4-yl)methyl]-2-pyridazin-3-ylpyrimidine-5-carboxamide]
